Results on 23 compounds are retold here after ChEMBL document CHEMBL1153164, “Synthesis and evaluation of 3'-azido-2',3'-dideoxypurine nucleosides as inhibitors of human immunodeficiency virus” (Bioorg Med Chem Lett, 2010).

Assay [1] deals with CCRF-CEM. The experiment in a line: Cytotoxicity against human CEM cells after 5 days. The assay is classed as ADME, cell-based. The conditions noted are these: 120 h.
The subject of assay [2] is PBMC. The assay is described as follows: Cytotoxicity against human PBMC after 5 days. The assay is classed as cell-based. The conditions noted are these: 120 h.
Assay [3] relates to Vero. The assay is described as follows: Cytotoxicity against african green monkey Vero cells after 5 days. The assay is classed as ADME, cell-based. The conditions noted are these: Chlorocebus sabaeus, 120 h.
The subject of assay [4] is Human immunodeficiency virus 1. The assay is described as follows: Antiviral activity against HIV1 LAI infected in human PBM cells after 5 days. The conditions noted are these: Human immunodeficiency virus 1, LAI, PBMC, 120 h. It is filed as functional, organism-based.

For `C#CCNc1nc(N)nc2c1ncn2[C@H]1C[C@H](N=[N+]=[N-])[C@@H](CO)O1`, the IC50 in assay [1], in assay [2] and in assay [3] was above 100 µM each time. Also, the EC50 (in general, the concentration giving half of the maximal effect) in assay [4] is 1.7 µM. Further, in assay [4], the concentration for an effect of 90% (EC90) (usually the concentration needed for an effect of 90%) was found to be 8.5 µM.
In the case of `C=CCNc1ncnc2c1ncn2[C@H]1C[C@H](N=[N+]=[N-])[C@@H](CO)O1`, the IC50 – broadly, the concentration at which inhibition is half-maximal – was above 100 µM in assay [1], 51.1 µM in assay [2] and above 100 µM in assay [3]. Further, a half-maximal effect in assay [4] (EC50) was put at 0.3 µM. In assay [4], this compound displayed an EC90 of 1.5 µM.
`CC(CO)Nc1nc(N)nc2c1ncn2[C@H]1C[C@H](N=[N+]=[N-])[C@@H](CO)O1` (some centres not stated): the IC50 in assay [1], in assay [2] and in assay [3] was above 100 µM in each case. Also, the EC50 in assay [4] came out at 59.9 µM. In assay [4], the EC90 was above 10 µM.
For `C=CCNc1nc(N)nc2c1ncn2[C@H]1C[C@H](N=[N+]=[N-])[C@@H](CO)O1`, the concentration for half-maximal inhibition (IC50) in assay [1], in assay [2] and in assay [3] was above 100 µM each time. A half-maximal response in assay [4] (EC50) required 0.5 µM. In assay [4], this compound had an EC90 of 4.3 µM.
Consider `C=CCN(C)c1nc(N)nc2c1ncn2[C@H]1C[C@H](N=[N+]=[N-])[C@@H](CO)O1`, for which the values for the half-maximal inhibitory concentration (IC50) in assay [1], in assay [2] and in assay [3] were 27 µM, above 100 µM and 32 µM, respectively. The compound also yielded a 50% effective concentration (EC50) in assay [4] of 0.4 µM. The compound further returned a concentration for an effect of 90% (EC90) in assay [4] of 1.5 µM.
Take `CC(C)(CO)Nc1nc(N)nc2c1ncn2[C@H]1C[C@H](N=[N+]=[N-])[C@@H](CO)O1`: the IC50 in assay [1], in assay [2] and in assay [3] was above 100 µM in each case. Further, it took 52.5 µM to reach a half-maximal effect in assay [4] (EC50). The compound further returned a 90% effect concentration (EC90) in assay [4] above 10 µM.
As for `COc1nc(NC2CC2)c2ncn([C@H]3C[C@H](N=[N+]=[N-])[C@@H](CO)O3)c2n1`, the half-maximal inhibitory concentration (IC50) in assay [1], in assay [2] and in assay [3] was above 100 µM in each case. The EC50 in assay [4] is 59.7 µM. This compound registered an EC90 in assay [4] above 100 µM.
Take `[N-]=[N+]=N[C@H]1C[C@H](n2cnc3c(N)nc(F)nc32)O[C@@H]1CO`: the values for the IC50 in assay [1], in assay [2] and in assay [3] were 30.1 µM, 30.1 µM and 34.4 µM, respectively. Also, in assay [4], the concentration giving a half-maximal response (EC50) is 45.8 µM. The compound further displayed a 90% effect concentration (EC90) in assay [4] of 94.7 µM.
For the compound `COc1nc(F)nc2c1ncn2[C@H]1C[C@H](N=[N+]=[N-])[C@@H](CO)O1`, the results for the IC50 in assay [1], in assay [2] and in assay [3] were above 100 µM, 9.4 µM and above 100 µM, respectively. In assay [4], this compound yielded an EC50 above 100 µM. In assay [4], the concentration for an effect of 90% (EC90) is above 100 µM.
For the compound `COc1nc(OC)c2ncn([C@H]3C[C@H](N=[N+]=[N-])[C@@H](CO)O3)c2n1`, the concentration for half-maximal inhibition (IC50) in assay [1], in assay [2] and in assay [3] was above 100 µM in each case. In assay [4], this compound had a 50% effective concentration (EC50) of 13.2 µM. This compound came in with an EC90 in assay [4] above 100 µM.
For the compound `COc1nc(Cl)nc2c1ncn2[C@H]1C[C@H](N=[N+]=[N-])[C@@H](CO)O1`, the IC50 in assay [1], in assay [2] and in assay [3] was above 100 µM each time. Further, in assay [4], the half-maximal effective concentration (EC50) was determined as 55.3 µM. Also, in assay [4], the EC90 was above 100 µM.
Regarding `[N-]=[N+]=N[C@H]1C[C@H](n2cnc3c(N)nc(Cl)nc32)O[C@@H]1CO`, the half-maximal inhibitory concentration (IC50) is above 100 µM in assay [1], 35.8 µM in assay [2] and above 100 µM in assay [3]. The compound also displayed an EC50 in assay [4] of 50.3 µM. The compound also yielded an EC90 in assay [4] above 100 µM.
Consider `[N-]=[N+]=N[C@H]1C[C@H](n2cnc3c(NC4CC4)nc(Cl)nc32)O[C@@H]1CO`, for which the results for the IC50 in assay [1], in assay [2] and in assay [3] were above 100 µM, 35.3 µM and above 100 µM, respectively. In addition, in assay [4], a half-maximal effect (EC50) was put at 15 µM. For the same compound, in assay [4], the EC90 was 51.5 µM.
On to `[N-]=[N+]=N[C@H]1C[C@H](n2cnc3c(NCCO)nc(N)nc32)O[C@@H]1CO`, for which the IC50 in assay [1], in assay [2] and in assay [3] was above 100 µM in each case. Also, the concentration giving a half-maximal response (EC50) in assay [4] stood at 2.1 µM. This compound gave an EC90 in assay [4] of 16.2 µM.
Regarding `[N-]=[N+]=N[C@H]1C[C@H](n2cnc3c(Cl)nc(F)nc32)O[C@@H]1CO`, the IC50 in assay [1] is 13.3 µM; in assay [2], 7.2 µM; in assay [3], 21.8 µM. Moreover, it took 2.6 µM to reach a half-maximal effect in assay [4] (EC50). In addition, it took 10 µM to reach the 90% level in assay [4] (EC90).
For `[N-]=[N+]=N[C@H]1C[C@H](n2cnc3c(NC4CC4)nc(N)nc32)O[C@@H]1CO`, the 50% inhibitory concentration (IC50) in assay [1], in assay [2] and in assay [3] was above 100 µM each time. Further, the concentration for a half-maximal effect (EC50) in assay [4] turned out to be 1.5 µM. The same compound returned an EC90 in assay [4] of 8.8 µM.
In the case of `CN(C)c1nc(N)nc2c1ncn2[C@H]1C[C@H](N=[N+]=[N-])[C@@H](CO)O1`, the IC50 in assay [1], in assay [2] and in assay [3] was above 100 µM in each case. The compound also gave a concentration giving a half-maximal response (EC50) in assay [4] of 0.21 µM. This compound also gave an EC90 in assay [4] of 1.1 µM.
For the compound `[N-]=[N+]=N[C@H]1C[C@H](n2cnc3c(NCCCCCO)nc(N)nc32)O[C@@H]1CO`, the half-inhibitory concentration (IC50) in assay [1], in assay [2] and in assay [3] was above 100 µM in each case. Also, the 50% effective concentration (EC50) in assay [4] was 86.5 µM. Also, the EC90 in assay [4] is above 10 µM.
For the compound `CN(C)c1nc(Cl)nc2c1ncn2[C@H]1C[C@H](N=[N+]=[N-])[C@@H](CO)O1`, the IC50 in assay [1], in assay [2] and in assay [3] was above 100 µM each time. In assay [4], this compound came in with an EC50 above 100 µM. In assay [4], the EC90 was above 100 µM.
For `CNc1nc(Cl)nc2c1ncn2[C@H]1C[C@H](N=[N+]=[N-])[C@@H](CO)O1`, the half-maximal inhibitory concentration (IC50) in assay [1], in assay [2] and in assay [3] was above 100 µM throughout. For the same compound, in assay [4], the EC50 is above 100 µM. This compound also displayed an EC90 in assay [4] above 100 µM.
Regarding `COc1nc(N)c2ncn([C@H]3C[C@H](N=[N+]=[N-])[C@@H](CO)O3)c2n1`, the IC50 in assay [1] is above 100 µM; in assay [2], 35 µM; in assay [3], above 100 µM. The compound also displayed an EC50 in assay [4] of 12.4 µM. This compound gave a concentration for an effect of 90% (EC90) in assay [4] of 39.6 µM.
As to `[N-]=[N+]=N[C@H]1C[C@H](n2ccc(=O)[nH]c2=O)O[C@@H]1CO` [NAVURIDINE], the IC50 in assay [1] is 69.3 µM; in assay [2], above 100 µM; in assay [3], 26 µM. In assay [4], this compound returned an EC50 of 0.16 µM. The same compound came in with an EC90 in assay [4] of 0.6 µM.
The compound `Cc1cn([C@H]2C[C@H](N=[N+]=[N-])[C@@H](CO)O2)c(=O)[nH]c1=O` [ZIDOVUDINE] gave an IC50 in assay [2] above 100 µM. In assay [4], this compound gave a 90% effect concentration (EC90) of 0.02 µM.
